{"source": "patent EP4251148B1", "about": "“HISTAMINE H3 RECEPTOR ANTAGONISTS/INVERSE AGONISTS FOR THE TREATMENT OF AUTISM SPECTRUM DISORDER” (Richter Gedeon Nyrt., priority 2020, dated 2022)", "key": {"H3 receptor": {"molecular_target": "T1, H3 receptor (Rattus norvegicus, UniProt Q9QYN8)", "T1 construct": "from tissue; host or cells: whole living rat (central H3 receptors); animals from Janvier Elevage, France", "T1 sequence (Q9QYN8 whole entry)": "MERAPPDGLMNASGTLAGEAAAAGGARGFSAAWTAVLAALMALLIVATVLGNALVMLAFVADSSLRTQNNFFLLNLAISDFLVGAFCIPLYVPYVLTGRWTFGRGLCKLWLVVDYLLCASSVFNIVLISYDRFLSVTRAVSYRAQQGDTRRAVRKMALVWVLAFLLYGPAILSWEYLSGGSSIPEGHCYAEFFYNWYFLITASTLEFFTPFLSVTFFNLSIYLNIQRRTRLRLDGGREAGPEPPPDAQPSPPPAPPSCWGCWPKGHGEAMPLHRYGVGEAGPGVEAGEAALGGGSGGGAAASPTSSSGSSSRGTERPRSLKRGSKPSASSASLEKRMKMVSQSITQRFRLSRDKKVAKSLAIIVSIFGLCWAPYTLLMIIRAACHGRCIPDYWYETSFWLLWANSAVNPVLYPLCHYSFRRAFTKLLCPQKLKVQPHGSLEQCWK", "assay": "imetit-induced dipsogenia test", "format": "in vivo, Harlan Wistar rats", "settings": "rats, test compound p.o. 30 min before imetit 3 mg/kg sc.; reversal of water intake", "from_the_text": "Brain penetrant histamine H3 receptor agonists such as R-α-methylhistamine and imetit cause an acute increase in water intake in rodents (Galici et al., 2009; Barbier et al., 2007; Clapham and Kilpatrick, 1993; Garbarg et al., 1993). This dipsogenic effect is specific to H3 receptor activation as it can be antagonized selectively by centrally acting H3 antagonists (e.g., thioperamide or clobenpropit) and not by H1 or H2 […] such as mepyramide or loxtidine, respectively (Fox et al., 2002; Clapham and Kilpatrick, 1992). Therefore, the inhibition of H3 receptor-mediated dipsogenia can be used as a central pharmacodynamic measure of in vivo H3 receptor function following peripheral administration of antagonist/inverse agonist compounds (Raddatz et al., 2012; Medhurst et al., 2007; Fox et al., 2005).\nThe protocol has been derived from Clapham and Kilpatrick (1992) with modifications. Group-housed adult male Harlan Wistar rats (Janvier Elevage, France) (340-500 g at the time of testing) were used as experimental animals. Rats were repeatedly used for testing for a maximum of four to five times with one week of wash-out period between testing days. Before commencing drug-testing sessions, animals were first habituated to the test procedure without receiving any drug treatment. On habituation days animals were administered 5 mL/kg distilled water p.o. and 30 min later 1 mL/kg physiological saline was injected sc., while drinking water was withdrawn from the home-cages. After a further 30 min, rats were isolated in test cages, where they had access to tap water, but not to chow. Water consumption was measured 30 min later. Rats that had drunken at least 0.2 g water during this period were randomized into treatment groups. On experimental days animals were administered the test compound or vehicle p.o. and 30 min later 3 mg/kg of the H3 receptor agonist imetit was injected sc. Investigational compounds were given in a volume of 5 mL/kg. Imetit dihydrobromide (Tocris, UK) was dissolved in physiological saline and administered in a volume of 1 mL/kg. Directly after treatment with imetit, drinking water was withdrawn from the home-cages. After an additional 30 min, rats were isolated to test cages, where they had access to tap water, but not to chow. Water consumption was measured after a free drinking period of 10 min.\nMeans ± S.E. of water intake (in grams) were calculated for each group. Significance of drug effect was determined by ANOVA followed by the post hoc Duncan-test. Significance was considered at the p<0.05 level. The percental reversal of imetit-induced water intake was calculated from the group means using the formula as follows, percental reversal of dipsogenia equals 1-((IME-DRUG)/(IME-VEH))·100, where IME is water intake of the p.o. vehicle plus imetit group, VEH is water intake of p.o. vehicle plus sc. vehicle group, and DRUG is water intake of p.o. test compound plus sc. […] group. Percental reversal was plotted for each dose and an ED50 value was calculated from the fitted curve (reversal values greater than 100% were taken into account as 100% reversal) based on linear regression."}, "[1]": {"system": "prenatally valproate treated rats", "assay": "tactile sensitivity measurement with von Frey filaments in the prenatal valproate model", "format": "in vivo, Wistar rats", "settings": "p.o., 60 min after treatment, 18-day-old rats", "from_the_text": "The prenatal valproate (VPA) model has excellent construct and face validity, therefore it is a widely accepted disease model of ASD. With respect to face validity, prenatal VPA exposure may lead to socio-communicational defects, excessive repetitive behaviors and increased sensitivity of various modalities (e.g., touch). […] Compounds that produced efficacy signals in ASD subjects comprise eg., oxytocin (Andari et al., PNAS 2010, 107:4389-4394).\nIn this method, time-mated female Wistar rats are administered a single dose of VPA (300 mg/kg, i.p.) on gestational day 12.5. Offspring are housed according to standard laboratory conditions until time of behavioral testing. Animals are housed in groups of 4 in conventional cages and maintained at 22-24°C on a standard 12-hour light/dark cycle, with food and water available ad libitum. […]\nDuring the measurement with von Frey filaments, 18-day-old rats were placed separately in small cages (dimensions: 7 x 7 x 9 cm) with mesh floors. […] First, a baseline sensitivity value was determined, and animals were randomized into treatment groups based on this baseline. Sixty min after p.o. treatment sensitivity was measured again. A 50% sensitivity threshold was calculated based on the value of the last measured fiber thickness and the application pattern of the various filament thicknesses. […]"}, "BALB/C mice": {"system": "BALB/C mice", "assay": "three-chamber assay, social novelty session, BALB/C mouse model of ASD", "format": "in vivo", "settings": "10 mg/kg (top dose); ** p<0.01 vs. familiar", "from_the_text": "The BALB/c mouse is a low-sociability, inbred line that is accepted as an idiopathic model of ASD (Brodkin, 2007; Burket et al., 2020; Ellegood, 2015; Jacome et al., 2011). Although the precise background of behavior is not known, the line carries a loss of function single nucleotide polymorphism in the tryptophane hydroxylase gene causing a 50% reduction in enzyme function (Russo et al., 2018). […] This model also has some predictive validity as some compounds that produced efficacy signals in humans have also been active in BALB/c mice such as D-cycloserine (Deutsch et al., 2012) or oxytocin (Teng et al., 2013).\nThe three-chamber assay was performed in an 8-channel LABORAS™ sociability system (Metris b.v., Hoofdorp, The Netherlands). […] Consequently, movements of target mice were not recorded. Just like in the classical LABORASTM set-up (Van de Weerd et al., 2001; Quinn et al., 2003), mechanical vibration generated by movement of the animals was transformed to electrical signals that were analyzed and the trajectory of the animals was determined. […]\nDuring the behavioral assays, test mice were habituated first to the center compartment of the three-chamber apparatus with the guillotine doors closed for 2 min. […] During this test session the time spent in the center chamber as well as with direct contact or no contact on the social versus non-social side was recorded. […]"}, "[2]": {"system": "prenatal valproate model of ASD in mice", "settings": "3 mg/kg intraperitoneally; cited from earlier work"}, "monoamine oxidase A": {"system": "monoamine oxidase A", "settings": "human and rat enzyme; cited from earlier work"}, "monoamine oxidase B": {"system": "monoamine oxidase B", "settings": "human and rat enzyme; slight preference for monoamine oxidase B; cited from earlier work"}, "[3]": {"settings": "3 mg/kg intraperitoneally; cited from earlier work"}}}
{"smiles": "C[C@@H]1CCCN1CCc1cc2cc(-c3ccc(C#N)cc3)ccc2o1", "note": "[ABT-239, 4-(2-{2-[(2R)-2-Methylpyrrolidin-1-yl]ethyl}-benzofuran-5-vl)benzonitrile]", "values": [{"measurement": "imetit-induced dipsogenia ED50", "setting": "H3 receptor", "result": 0.26, "unit": "mg/kg p.o."}]}
{"smiles": "CNC(=O)c1ccc(Oc2ccc3c(c2)CCN(C2CCC2)CC3)nc1", "note": "[GSK-189254, 6-[(3-cyclobutyl-1,2,4,5-tetrahydro-3-benzazepin-7-yl)oxy]-N-methylpyridine-3-carboxamide]", "values": [{"measurement": "tactile hypersensitivity (threshold level of paw withdrawal to von Frey filaments)", "setting": "[1]; 0.1 mg/kg (middle dose), + p<0.05 vs. VPA, inverted U-shaped dose-response curve", "result": "reversed this tactile hypersensitivity"}, {"measurement": "imetit-induced dipsogenia ED50", "setting": "H3 receptor", "result": 0.14, "unit": "mg/kg p.o."}]}
{"smiles": "Cn1nc(N2CCC(OC(=O)N3CCN(C4CCC4)CC3)CC2)ccc1=O", "note": "[LML-134, 1-(1-methyl-6-oxo-1,6-dihydropyridazin-3-yl)piperidin-4-yl 4-cyclobutylpiperazine-1-carboxylate]", "values": [{"measurement": "tactile hypersensitivity (threshold level of paw withdrawal to von Frey filaments)", "setting": "[1]; 10 mg/kg (top dose), ++ p<0.01 vs. VPA", "result": "reversed this tactile hypersensitivity"}, {"measurement": "social novelty (time spent with investigation of the novel animal)", "setting": "BALB/C mice", "result": "improve social novelty"}, {"measurement": "imetit-induced dipsogenia ED50", "setting": "H3 receptor", "result": "< 1", "unit": "mg/kg p.o."}]}
{"smiles": "CCNC(=O)C1CC(F)(c2ccc(CN3CCCC3)c(F)c2)C1", "note": "(stereo not drawn) [PF-03654746, trans-N-Ethyl-3-fluoro-3-[3-fluoro-4-(1pyrrolidinylmethyl)phenyl]cyclobutanecarboxamide]", "values": [{"measurement": "imetit-induced dipsogenia ED50", "setting": "H3 receptor", "result": 0.78, "unit": "mg/kg p.o."}]}
{"smiles": "O=C(c1ccc(CN2CCOCC2)cc1)N1CCN(C2CC2)CC1", "note": "[bavisant, (4-cyclopropylpiperazin-1-yl)-[4-(morpholin-4-ylmethyl)phenyl]methanone]", "values": [{"measurement": "imetit-induced dipsogenia ED50", "setting": "H3 receptor", "result": "< 0.3", "unit": "mg/kg p.o."}]}
{"smiles": "O=C(c1ccc(OCCCc2cnc[nH]2)cc1)C1CC1", "note": "[ciproxifan]", "values": [{"measurement": "social deficits and excessive repetitive behavior", "setting": "[2]", "result": "improved social deficits and excessive repetitive behavior"}, {"measurement": "inhibition of monoamine oxidase A", "setting": "monoamine oxidase A", "result": "micromolar concentration range"}, {"measurement": "inhibition of monoamine oxidase B", "setting": "monoamine oxidase B", "result": "micromolar concentration range"}, {"measurement": "plasma exposures", "setting": "[3]", "result": "micromolar range"}]}
{"smiles": "Clc1ccc(CCCOCCCN2CCCCC2)cc1", "note": "[pitolisant, 1-[3-[3-(4-chlorophenyl)propoxy]propyl]piperidine]", "values": [{"measurement": "imetit-induced dipsogenia ED50", "setting": "H3 receptor", "result": 11, "unit": "mg/kg p.o."}]}
{"smiles": "O=C(CN1CCOCC1)Nc1ccc(OC2CCN(C3CCC3)CC2)cc1", "note": "[samelisant, N-{4-[(1-cyclobutylpiperidin-4-yl)oxy]phenyl}-2-(morpholin-4-yl)acetamide]", "values": [{"measurement": "imetit-induced dipsogenia ED50", "setting": "H3 receptor", "result": "< 1", "unit": "mg/kg p.o."}]}
